Measurements reported in patent publication US12171230B2, “Herbicidal compositions” (Bayer Aktiengesellschaft, priority 2018, dated 2024).

Columns and labels:
Assay type in all cases: in vivo
[1] = system: Poa annua; test: Post-emergence herbicidal action against Poa annua; conditions: for Herbicidal action: 14 DAT
Procedure: (§1) When the observed efficacies exceed the formal sum total of the values of the tests with individual applications, they also exceed the expected value according to Colby, which is calculated using the formula below and is likewise regarded as an indication of synergism (cf. S. R. Colby; in Weeds 15 (1967) p. 20 to 22): E^C=A+B−([…])
(§2) Here: • A=efficacy of the active compound (A) in % at an application rate of a g a.i./ha; • B=efficacy of the active compound (B) in % at an application rate of b g a.i./ha; • E^C=expected value of the effect of the combination (A)+(B) in % at the combined application rate a+b g a.i./ha.
(§3) Seeds or rhizome pieces of mono- and dicotyledonous weeds are placed in sandy loam in pots, covered with soil and grown in a greenhouse under good growth conditions (temperature, air humidity, water supply). Three weeks after sowing, the test plants were treated at the three-leaf stage with the compositions according to the invention. The compositions according to the invention formulated as spray powders or as emulsion concentrates were sprayed onto the green plant parts in various dosages with an application rate of 300 to 800 l/ha of water (equivalent). After the test plants have been left to stand in the greenhouse under optimal growth conditions for about 3 to 4 weeks, the action of the preparations is scored visually in comparison to untreated controls. The compositions according to the invention also have good post-emergence herbicidal activity against a broad spectrum of economically important gramineous and broadleaf weeds.

[2] = system: Centaurea cyano; test: Post-emergence herbicidal action against Centaurea cyano
Procedure: Seeds or rhizome pieces of mono- and dicotyledonous weeds are placed in sandy loam in pots, covered with soil and grown in a greenhouse under good growth conditions (temperature, air humidity, water supply). Three weeks after sowing, the test plants were treated at the three-leaf stage with the compositions according to the invention. The compositions according to the invention formulated as spray powders or as emulsion concentrates were sprayed onto the green plant parts in various dosages with an application rate of 300 to 800 l/ha of water (equivalent).

[3] = system: Galium aparine; test: Post-emergence herbicidal action against Galium aparine
Procedure: as §1, §2, §3

[4] = system: Matricaria inodora; test: Post-emergence herbicidal action against Matricaria inodora; conditions: for Herbicidal action: 450 g a.i./ha
[5] = system: Bromus sterilis; test: Post-emergence herbicidal action against Bromus sterilis; conditions: 14 DAT; 50 g a.i./ha
[6] = system: Lolium rigidum; test: Post-emergence herbicidal action against Lolium rigidum
[7] = system: Phalaris minor; test: Post-emergence herbicidal action against Phalaris minor
[8] = system: Viola tricolor; test: Post-emergence herbicidal action against Viola tricolor
[9] = system: Lamium purpureum; test: Post-emergence herbicidal action against Lamium purpureum; conditions: 45 g of a.i./ha
Procedure: as §1, §2, §3

[10] = system: Alopecurus myosuroides; test: Post-emergence herbicidal action against Alopecurus myosuroides
[11] = system: Bromus sterilis; test: Post-emergence herbicidal action against Bromus sterilis
[12] = system: Lolium rigidum; test: Post-emergence herbicidal action against Lolium rigidum; remark: listed apart in the source
[13] = system: Lolium rigidum (resistant biotype); test: Post-emergence herbicidal action against Lolium rigidum (resistant biotype)
[14] = system: Phalaris minor; test: Post-emergence herbicidal action against Phalaris minor; remark: listed apart in the source
[15] = system: Viola tricolor; test: Post-emergence herbicidal action against Viola tricolor; conditions: 5 g of a.i./ha

Q: Which Herbicidal action ([1]; 50 g a.i./ha) does the source give for `CP(=O)(O)CCC(N)C(=O)O` (stereo not drawn) [(7.4) Glufosinate] here?
A: The Herbicidal action was 10%.

Q: And the Herbicidal action ([1]; 150 g a.i./ha)?
A: Its Herbicidal action is 30%.

Q: What about the Herbicidal action ([1]; 450 g a.i./ha) of the same compound?
A: Its Herbicidal action is 40%.

Q: And the Herbicidal action ([2]; 14 DAT, 50 g a.i./ha)?
A: The Herbicidal action was 30%.

Q: What about the Herbicidal action ([2]; 28 DAT, 450 g a.i./ha) of the same compound?
A: The Herbicidal action was 60%.

Q: And the Herbicidal action ([3]; 28 DAT, 50 g a.i./ha)?
A: Its Herbicidal action is 0%.

Q: And the Herbicidal action ([4]; 14 DAT)?
A: The Herbicidal action was 90%.

Q: And the Herbicidal action ([4]; 28 DAT)?
A: Its Herbicidal action is 85%.

Q: What about the Herbicidal action [5] of the same compound?
A: Its Herbicidal action is 0%.

Q: What about the Herbicidal action ([6]; 14 DAT, 150 g a.i./ha) of the same compound?
A: Its Herbicidal action is 50%.

Q: What about the Herbicidal action ([6]; 14 DAT, resistant biotype, 150 g a.i./ha) of the same compound?
A: The Herbicidal action was 30%.

Q: And the Herbicidal action ([6]; 28 DAT, 150 g a.i./ha)?
A: Its Herbicidal action is 30%.

Q: What about the Herbicidal action ([6]; 28 DAT, resistant biotype, 150 g a.i./ha) of the same compound?
A: Its Herbicidal action is 30%.

Q: And the Herbicidal action ([6]; 28 DAT, resistant biotype, 450 g a.i./ha)?
A: The Herbicidal action was 50%.

Q: What about the Herbicidal action ([7]; 14 DAT, 50 g a.i./ha) of the same compound?
A: Its Herbicidal action is 0%.

Q: What about the Herbicidal action ([7]; 14 DAT, 150 g a.i./ha) of the same compound?
A: Its Herbicidal action is 30%.

Q: And the Herbicidal action ([7]; 28 DAT, 50 g a.i./ha)?
A: Its Herbicidal action is 0%.

Q: What about the Herbicidal action ([7]; 28 DAT, 150 g a.i./ha) of the same compound?
A: The Herbicidal action was 10%.

Q: What about the Herbicidal action ([7]; 28 DAT, 450 g a.i./ha) of the same compound?
A: The Herbicidal action was 30%.

Q: What about the Herbicidal action ([8]; 14 DAT, 150 g a.i./ha) of the same compound?
A: The Herbicidal action was 80%.

Q: And the Herbicidal action ([8]; 28 DAT, 50 g a.i./ha)?
A: Its Herbicidal action is 20%.

Q: What about the Herbicidal action ([8]; 28 DAT, 150 g a.i./ha) of the same compound?
A: Its Herbicidal action is 50%.

Q: What about the Herbicidal action ([8]; 28 DAT, 450 g a.i./ha) of the same compound?
A: Its Herbicidal action is 60%.

Q: Which “Herbicidal action in [%] 28 DAT against Lamium purpureum L.” value [9] does the source give for `Cc1nn(-c2cc(CC(Cl)C(=O)O)c(Cl)cc2F)c(=O)n1C(F)F` (stereo not drawn) [(B4.8) Carfentrazone] here?
A: Its value is 80%.

Q: What about the “Herbicidal action in [%] 14 DAT against Poa annua L.” value ([1]; 5 g of a.i./ha) of the same compound?
A: The value was 0%.

Q: What about the “Herbicidal action in [%] 14 DAT against Poa annua L.” value ([1]; 15 g of a.i./ha) of the same compound?
A: Its value is 0%.

Q: What about the “Herbicidal action in [%] 28 DAT against Poa annua L.” value ([1]; 15 g of a.i./ha) of the same compound?
A: Its value is 0%.

Q: And the “Herbicidal action in [%] 14 DAT against Poa annua L.” value ([1]; 45 g of a.i./ha)?
A: Its value is 10%.

Q: What about the “Herbicidal action in [%] 28 DAT against Poa annua L.” value ([1]; 45 g of a.i./ha) of the same compound?
A: Its value is 20%.

Q: And the “Herbicidal action in [%] 28 DAT against Galium aparine” value ([3]; 5 g of a.i./ha)?
A: Its value is 70%.

Q: And the “Herbicidal action in [%] 28 DAT against Galium aparine” value ([3]; 15 g of a.i./ha)?
A: Its value is 80%.

Q: What about the “Herbicidal action in [%] 14 DAT against Matricaria inodora” value ([4]; 5 g of a.i./ha) of the same compound?
A: Its value is 25%.

Q: And the “Herbicidal action in [%] 14 DAT against Alopecurus myosuroides” value ([10]; 5 g of a.i./ha)?
A: Its value is 0%.

Q: What about the “Herbicidal action in [%] 14 DAT against Alopecurus myosuroides” value ([10]; 15 g of a.i./ha) of the same compound?
A: The value was 0%.

Q: And the “Herbicidal action in [%] 28 DAT against Alopecurus myosuroides” value ([10]; 15 g of a.i./ha)?
A: Its value is 0%.

Q: What about the “Herbicidal action in [%] 14 DAT against Alopecurus myosuroides” value ([10]; 15 g of a.i./ha, second 14 DAT block) of the same compound?
A: Its value is 15%.

Q: And the “Herbicidal action in [%] 14 DAT against Alopecurus myosuroides” value ([10]; 45 g of a.i./ha)?
A: Its value is 25%.

Q: What about the “Herbicidal action in [%] 28 DAT against Alopecurus myosuroides” value ([10]; 45 g of a.i./ha) of the same compound?
A: Its value is 20%.

Q: What about the “Herbicidal action in [%] 14 DAT against Alopecurus myosuroides” value ([10]; 45 g of a.i./ha, second 14 DAT block) of the same compound?
A: Its value is 35%.

Q: What about the “Herbicidal action in [%] 14 DAT against Bromus sterilis” value ([11]; 15 g of a.i./ha) of the same compound?
A: The value was 20%.

Q: What about the “Herbicidal action in [%] 28 DAT against Bromus sterilis” value ([11]; 15 g of a.i./ha) of the same compound?
A: The value was 15%.

Q: And the “Herbicidal action in [%] 14 DAT against Bromus sterilis” value ([11]; 45 g of a.i./ha)?
A: The value was 30%.

Q: And the “Herbicidal action in [%] 28 DAT against Bromus sterilis” value ([11]; 45 g of a.i./ha)?
A: Its value is 35%.

Q: What about the “Herbicidal action in [%] 28 DAT against Lolium rigidum” value ([12]; 15 g of a.i./ha) of the same compound?
A: The value was 0%.

Q: And the “Herbicidal action in [%] 28 DAT against Lolium rigidum” value ([12]; 45 g of a.i./ha)?
A: Its value is 20%.

Q: What about the “Herbicidal action in [%] 14 DAT against Lolium rigidum (resistant biotype)” value ([13]; 15 g of a.i./ha) of the same compound?
A: The value was 10%.

Q: What about the “Herbicidal action in [%] 28 DAT against Lolium rigidum (resistant biotype)” value ([13]; 15 g of a.i./ha) of the same compound?
A: Its value is 0%.

Q: What about the “Herbicidal action in [%] 14 DAT against Lolium rigidum (resistant biotype)” value ([13]; 45 g of a.i./ha) of the same compound?
A: Its value is 25%.

Q: What about the “Herbicidal action in [%] 28 DAT against Lolium rigidum (resistant biotype)” value ([13]; 45 g of a.i./ha) of the same compound?
A: Its value is 20%.

Q: What about the “Herbicidal action in [%] 14 DAT against Phalaris minor” value ([14]; 15 g of a.i./ha) of the same compound?
A: The value was 15%.

Q: And the “Herbicidal action in [%] 28 DAT against Phalaris minor” value ([14]; 15 g of a.i./ha)?
A: Its value is 0%.

Q: And the “Herbicidal action in [%] 14 DAT against Phalaris minor” value ([14]; 45 g of a.i./ha)?
A: The value was 20%.

Q: What about the “Herbicidal action in [%] 28 DAT against Phalaris minor” value ([14]; 45 g of a.i./ha) of the same compound?
A: The value was 10%.

Q: What about the “Herbicidal action in [%] 28 DAT against Viola tricolor” value [15] of the same compound?
A: Its value is 80%.
